Columns and labels:
Details in all cases: recombinant enzyme
Cytochrome P450 2D6 [1] = molecular target: T1, Cytochrome P450 2D6 (Homo sapiens, UniProt P10635); assay: (§1) Drug activation in human Hep3B cells assessed as human CYP2D6-mediated drug metabolism-induced cytotoxicity measured as decrease in cell viability at 54.3 uM pre-incubated with BSO for 18 hrs followed by incubation with compound for 3 hrs in presence of NADPH measured after 24 hrs in absence of compound, CYP3A4 and NADPH by cell titer-glo luminescence assay relative to BSO alone; type: ADME, cell-based
T1 sequence (P10635 whole entry): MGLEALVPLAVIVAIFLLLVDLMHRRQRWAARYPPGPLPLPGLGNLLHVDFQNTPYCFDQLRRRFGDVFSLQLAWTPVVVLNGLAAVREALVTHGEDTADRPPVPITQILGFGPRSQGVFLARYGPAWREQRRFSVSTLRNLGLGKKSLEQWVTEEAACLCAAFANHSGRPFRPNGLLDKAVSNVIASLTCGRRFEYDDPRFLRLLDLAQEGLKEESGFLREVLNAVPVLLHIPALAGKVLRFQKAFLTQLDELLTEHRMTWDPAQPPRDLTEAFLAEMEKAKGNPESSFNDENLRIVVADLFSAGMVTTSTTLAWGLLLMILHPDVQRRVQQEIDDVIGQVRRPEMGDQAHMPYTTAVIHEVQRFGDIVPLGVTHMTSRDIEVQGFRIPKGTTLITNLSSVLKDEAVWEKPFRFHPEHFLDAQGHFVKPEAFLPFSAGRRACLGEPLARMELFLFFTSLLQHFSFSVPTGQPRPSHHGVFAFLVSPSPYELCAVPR

Cytochrome P450 3A4 [2] = molecular target: T2, Cytochrome P450 3A4 (Homo sapiens, UniProt P08684); assay: as §1, with “CYP3A4-mediated” for “CYP2D6-mediated”, “45.8” for “54.3”; type: ADME, cell-based
T2 sequence (P08684 whole entry): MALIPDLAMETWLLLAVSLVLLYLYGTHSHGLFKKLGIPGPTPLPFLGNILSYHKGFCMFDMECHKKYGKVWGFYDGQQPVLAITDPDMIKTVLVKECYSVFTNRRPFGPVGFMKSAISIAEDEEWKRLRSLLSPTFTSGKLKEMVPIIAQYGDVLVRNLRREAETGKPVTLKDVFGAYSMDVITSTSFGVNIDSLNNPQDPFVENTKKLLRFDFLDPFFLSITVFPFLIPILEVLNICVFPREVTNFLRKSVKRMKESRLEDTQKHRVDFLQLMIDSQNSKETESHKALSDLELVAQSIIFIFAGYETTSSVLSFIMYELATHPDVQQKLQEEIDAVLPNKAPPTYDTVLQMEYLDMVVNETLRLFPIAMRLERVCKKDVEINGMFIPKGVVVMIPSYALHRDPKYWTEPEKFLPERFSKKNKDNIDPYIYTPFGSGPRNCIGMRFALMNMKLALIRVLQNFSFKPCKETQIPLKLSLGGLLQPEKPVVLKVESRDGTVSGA

Cytochrome P450 2C9 [3] = molecular target: T3, Cytochrome P450 2C9 (Homo sapiens, UniProt P11712); assay: as §1, with “CYP2C9-mediated” for “CYP2D6-mediated”, “44” for “54.3”; type: ADME, cell-based
T3 sequence (P11712 whole entry): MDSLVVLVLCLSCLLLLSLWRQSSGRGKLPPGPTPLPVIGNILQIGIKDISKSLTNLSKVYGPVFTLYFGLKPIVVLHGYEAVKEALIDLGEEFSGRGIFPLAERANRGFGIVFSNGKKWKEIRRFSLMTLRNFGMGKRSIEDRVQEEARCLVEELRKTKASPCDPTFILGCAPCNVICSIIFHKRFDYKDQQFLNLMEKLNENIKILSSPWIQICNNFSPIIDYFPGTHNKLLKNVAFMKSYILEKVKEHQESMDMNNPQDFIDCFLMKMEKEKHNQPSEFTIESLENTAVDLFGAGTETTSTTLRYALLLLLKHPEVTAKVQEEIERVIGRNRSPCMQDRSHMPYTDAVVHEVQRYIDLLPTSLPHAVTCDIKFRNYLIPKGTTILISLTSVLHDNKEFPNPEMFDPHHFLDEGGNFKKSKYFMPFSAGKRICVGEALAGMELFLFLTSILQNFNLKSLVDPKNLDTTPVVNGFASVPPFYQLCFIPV

Cytochrome P450 2C9 [4] = molecular target: T3, Cytochrome P450 2C9; assay: as §1, with “CYP2C9-mediated” for “CYP2D6-mediated”, “47.3” for “54.3”; type: ADME, cell-based
Cytochrome P450 2D6 [5] = molecular target: T1, Cytochrome P450 2D6; assay: as §1, with “5.8” for “54.3”; type: ADME, cell-based
Cytochrome P450 3A4 [6] = molecular target: T2, Cytochrome P450 3A4; assay: as §1, with “CYP3A4-mediated” for “CYP2D6-mediated”, “53” for “54.3”; type: ADME, cell-based
Cytochrome P450 2D6 [7] = molecular target: T1, Cytochrome P450 2D6; assay: as §1, with “15.6” for “54.3”; type: ADME, cell-based
Cytochrome P450 3A4 [8] = molecular target: T2, Cytochrome P450 3A4; assay: as §1, with “CYP3A4-mediated” for “CYP2D6-mediated”, “16.3” for “54.3”; type: ADME, cell-based
Cytochrome P450 2C9 [9] = molecular target: T3, Cytochrome P450 2C9; assay: as §1, with “CYP2C9-mediated” for “CYP2D6-mediated”, “17.1” for “54.3”; type: ADME, cell-based
Cytochrome P450 2D6 [10] = molecular target: T1, Cytochrome P450 2D6; assay: as §1, with “31.6” for “54.3”; type: ADME, cell-based
Cytochrome P450 2C9 [11] = molecular target: T3, Cytochrome P450 2C9; assay: as §1, with “CYP2C9-mediated” for “CYP2D6-mediated”, “224.2” for “54.3”; type: ADME, cell-based
Cytochrome P450 3A4 [12] = molecular target: T2, Cytochrome P450 3A4; assay: as §1, with “CYP3A4-mediated” for “CYP2D6-mediated”, “14” for “54.3”; type: ADME, cell-based
Cytochrome P450 2D6 [13] = molecular target: T1, Cytochrome P450 2D6; assay: as §1, with “300” for “54.3”
Cytochrome P450 3A4 [14] = molecular target: T2, Cytochrome P450 3A4; assay: as §1, with “CYP3A4-mediated” for “CYP2D6-mediated”, “300” for “54.3”
Cytochrome P450 2C9 [15] = molecular target: T3, Cytochrome P450 2C9; assay: as §1, with “CYP2C9-mediated” for “CYP2D6-mediated”, “71.3” for “54.3”; type: ADME, cell-based
Cytochrome P450 2D6 [16] = molecular target: T1, Cytochrome P450 2D6; assay: as §1, with “113.7” for “54.3”; type: ADME, cell-based
Cytochrome P450 2C9 [17] = molecular target: T3, Cytochrome P450 2C9; assay: as §1, with “CYP2C9-mediated” for “CYP2D6-mediated”, “174.8” for “54.3”; type: ADME, cell-based
Cytochrome P450 3A4 [18] = molecular target: T2, Cytochrome P450 3A4; assay: as §1, with “CYP3A4-mediated” for “CYP2D6-mediated”, “90.1” for “54.3”; type: ADME, cell-based
Cytochrome P450 2D6 [19] = molecular target: T1, Cytochrome P450 2D6; assay: as §1, with “21.3” for “54.3”; type: ADME, cell-based
Cytochrome P450 3A4 [20] = molecular target: T2, Cytochrome P450 3A4; assay: as §1, with “CYP3A4-mediated” for “CYP2D6-mediated”, “74.4” for “54.3”; type: ADME, cell-based
Cytochrome P450 2C9 [21] = molecular target: T3, Cytochrome P450 2C9; assay: as §1, with “CYP2C9-mediated” for “CYP2D6-mediated”, “51.1” for “54.3”; type: ADME, cell-based
Cytochrome P450 2C9 [22] = molecular target: T3, Cytochrome P450 2C9; assay: as §1, with “CYP2C9-mediated” for “CYP2D6-mediated”, “34” for “54.3”; type: ADME, cell-based
Cytochrome P450 2C9 [23] = molecular target: T3, Cytochrome P450 2C9; assay: as §1, with “CYP2C9-mediated” for “CYP2D6-mediated”, “39” for “54.3”; type: ADME, cell-based
Cytochrome P450 3A4 [24] = molecular target: T2, Cytochrome P450 3A4; assay: as §1, with “CYP3A4-mediated” for “CYP2D6-mediated”, “22.3” for “54.3”; type: ADME, cell-based
Cytochrome P450 2D6 [25] = molecular target: T1, Cytochrome P450 2D6; assay: as §1, with “17.6” for “54.3”; type: ADME, cell-based
Cytochrome P450 2C9 [26] = molecular target: T3, Cytochrome P450 2C9; assay: as §1, with “CYP2C9-mediated” for “CYP2D6-mediated”, “150” for “54.3”; type: ADME, cell-based
Cytochrome P450 2D6 [27] = molecular target: T1, Cytochrome P450 2D6; assay: as §1, with “188.9” for “54.3”; type: ADME, cell-based
Cytochrome P450 3A4 [28] = molecular target: T2, Cytochrome P450 3A4; assay: as §1, with “CYP3A4-mediated” for “CYP2D6-mediated”, “154.5” for “54.3”; type: ADME, cell-based
Cytochrome P450 2C9 [29] = molecular target: T3, Cytochrome P450 2C9; assay: as §1, with “CYP2C9-mediated” for “CYP2D6-mediated”, “49.7” for “54.3”; type: ADME, cell-based
Cytochrome P450 3A4 [30] = molecular target: T2, Cytochrome P450 3A4; assay: as §1, with “CYP3A4-mediated” for “CYP2D6-mediated”, “29.6” for “54.3”; type: ADME, cell-based
Cytochrome P450 2D6 [31] = molecular target: T1, Cytochrome P450 2D6; assay: as §1, with “79.2” for “54.3”; type: ADME, cell-based
Cytochrome P450 2C9 [32] = molecular target: T3, Cytochrome P450 2C9; assay: as §1, with “CYP2C9-mediated” for “CYP2D6-mediated”, “136.1” for “54.3”; type: ADME, cell-based
Cytochrome P450 2D6 [33] = molecular target: T1, Cytochrome P450 2D6; assay: as §1, with “27.8” for “54.3”; type: ADME, cell-based
Cytochrome P450 3A4 [34] = molecular target: T2, Cytochrome P450 3A4; assay: as §1, with “CYP3A4-mediated” for “CYP2D6-mediated”, “20.4” for “54.3”; type: ADME, cell-based
Cytochrome P450 2D6 [35] = molecular target: T1, Cytochrome P450 2D6; assay: as §1, with “13” for “54.3”; type: ADME, cell-based
Cytochrome P450 2C9 [36] = molecular target: T3, Cytochrome P450 2C9; assay: as §1, with “CYP2C9-mediated” for “CYP2D6-mediated”, “9.1” for “54.3”; type: ADME, cell-based
Cytochrome P450 2D6 [37] = molecular target: T1, Cytochrome P450 2D6; assay: as §1, with “12.2” for “54.3”; type: ADME, cell-based
Cytochrome P450 2C9 [38] = molecular target: T3, Cytochrome P450 2C9; assay: as §1, with “CYP2C9-mediated” for “CYP2D6-mediated”, “9.7” for “54.3”; type: ADME, cell-based
Cytochrome P450 3A4 [39] = molecular target: T2, Cytochrome P450 3A4; assay: as §1, with “CYP3A4-mediated” for “CYP2D6-mediated”, “7.6” for “54.3”; type: ADME, cell-based
Cytochrome P450 2C9 [40] = molecular target: T3, Cytochrome P450 2C9; assay: as §1, with “CYP2C9-mediated” for “CYP2D6-mediated”, “452.5” for “54.3”; type: ADME, cell-based
Cytochrome P450 3A4 [41] = molecular target: T2, Cytochrome P450 3A4; assay: as §1, with “CYP3A4-mediated” for “CYP2D6-mediated”, “53.7” for “54.3”; type: ADME, cell-based
Cytochrome P450 2D6 [42] = molecular target: T1, Cytochrome P450 2D6; assay: as §1, with “2.1” for “54.3”; type: ADME, cell-based
Cytochrome P450 2D6 [43] = molecular target: T1, Cytochrome P450 2D6; assay: as §1, with “52.1” for “54.3”; type: ADME, cell-based
Cytochrome P450 3A4 [44] = molecular target: T2, Cytochrome P450 3A4; assay: as §1, with “CYP3A4-mediated” for “CYP2D6-mediated”, “70.3” for “54.3”; type: ADME, cell-based
Cytochrome P450 2C9 [45] = molecular target: T3, Cytochrome P450 2C9; assay: as §1, with “CYP2C9-mediated” for “CYP2D6-mediated”, “88.3” for “54.3”; type: ADME, cell-based

CC(C)(C)NC(=O)[C@@H]1C[C@@H]2CCCC[C@@H]2CN1C[C@@H](O)[C@H](Cc1ccccc1)NC(=O)[C@H](CC(N)=O)NC(=O)c1ccc2ccccc2n1
fold change (FC) (Cytochrome P450 2D6 [1]): 0.7 | fold change (FC) (Cytochrome P450 3A4 [2]): 0.8 | fold change (FC) (Cytochrome P450 2C9 [3]): 0.8

CCc1oc2ccccc2c1C(=O)c1ccc(O)cc1 [BENZARONE]
fold change (FC) (Cytochrome P450 2C9 [4]): 0.9 | fold change (FC) (Cytochrome P450 2D6 [5]): 7.5 | fold change (FC) (Cytochrome P450 3A4 [6]): 0.8

CCc1oc2ccccc2c1C(=O)c1cc(I)c(O)c(I)c1 [BENZIODARONE]
fold change (FC) (Cytochrome P450 2D6 [7]): 2.3 | fold change (FC) (Cytochrome P450 3A4 [8]): 2.2 | fold change (FC) (Cytochrome P450 2C9 [9]): 2.1

CC(O)(CS(=O)(=O)c1ccc(F)cc1)C(=O)Nc1ccc(C#N)c(C(F)(F)F)c1 (stereo not given) [BICALUTAMIDE]
fold change (FC) (Cytochrome P450 2D6 [10]): 0.7 | fold change (FC) (Cytochrome P450 2C9 [11]): 0.1 | fold change (FC) (Cytochrome P450 3A4 [12]): 1.7

CC(C(=O)O)c1cccc(Oc2ccccc2)c1 (stereo not given) [FENOPROFEN]
FC (Cytochrome P450 2D6 [13]): 1 | FC (Cytochrome P450 3A4 [14]): 1 | fold change (FC) (Cytochrome P450 2C9 [15]): 4.2

CC(C)C(=O)Nc1ccc([N+](=O)[O-])c(C(F)(F)F)c1 [FLUTAMIDE]
fold change (FC) (Cytochrome P450 2D6 [16]): 1.2 | fold change (FC) (Cytochrome P450 2C9 [17]): 0.8 | fold change (FC) (Cytochrome P450 3A4 [18]): 1.6

CN(C)CCCN1c2ccccc2CCc2ccccc21 [IMIPRAMINE]
fold change (FC) (Cytochrome P450 2D6 [19]): 0.7 | fold change (FC) (Cytochrome P450 3A4 [20]): 0.2 | fold change (FC) (Cytochrome P450 2C9 [21]): 0.3

CC(=O)N1CCN(c2ccc(OCC3COC(Cn4ccnc4)(c4ccc(Cl)cc4Cl)O3)cc2)CC1 (stereo not given) [KETOCONAZOLE]
fold change (FC) (Cytochrome P450 2C9 [22]): 1.4

O=C(c1ccccc1)c1ccc2n1CCC2C(=O)O (stereo not given) [KETOROLAC]
fold change (FC) (Cytochrome P450 2C9 [23]): 0.4 | fold change (FC) (Cytochrome P450 3A4 [24]): 0.6 | fold change (FC) (Cytochrome P450 2D6 [25]): 0.8

CS(=O)(=O)CCNCc1ccc(-c2ccc3ncnc(Nc4ccc(OCc5cccc(F)c5)c(Cl)c4)c3c2)o1 [LAPATINIB]
fold change (FC) (Cytochrome P450 2C9 [26]): 0.3 | fold change (FC) (Cytochrome P450 2D6 [27]): 0.2 | fold change (FC) (Cytochrome P450 3A4 [28]): 0.3

CC(C)(O)c1ccccc1CC[C@@H](SCC1(CC(=O)O)CC1)c1cccc(/C=C/c2ccc3ccc(Cl)cc3n2)c1 [MONTELUKAST]
fold change (FC) (Cytochrome P450 2C9 [29]): 0.7 | fold change (FC) (Cytochrome P450 3A4 [30]): 1.2 | fold change (FC) (Cytochrome P450 2D6 [31]): 0.5

CCc1nn(CCCN2CCN(c3cccc(Cl)c3)CC2)c(=O)n1CCOc1ccccc1 [NEFAZODONE]
fold change (FC) (Cytochrome P450 2C9 [32]): 0.6 | fold change (FC) (Cytochrome P450 2D6 [33]): 3 | fold change (FC) (Cytochrome P450 3A4 [34]): 4.1

Fc1ccc([C@@H]2CCNC[C@H]2COc2ccc3c(c2)OCO3)cc1 [PAROXETINE]
fold change (FC) (Cytochrome P450 2D6 [35]): 0.4 | fold change (FC) (Cytochrome P450 2C9 [36]): 0.6

C1CCC(C(CC2CCCCN2)C2CCCCC2)CC1 (stereo not given) [PERHEXILINE]
fold change (FC) (Cytochrome P450 2D6 [37]): 0.4 | fold change (FC) (Cytochrome P450 2C9 [38]): 0.5 | fold change (FC) (Cytochrome P450 3A4 [39]): 0.7

CC(C)NCC(O)COc1cccc2ccccc12 (stereo not given) [PROPRANOLOL]
fold change (FC) (Cytochrome P450 2C9 [40]): 0.6 | fold change (FC) (Cytochrome P450 3A4 [41]): 4.7 | fold change (FC) (Cytochrome P450 2D6 [42]): 120.7

C=CC[C@@H]1/C=C(\C)C[C@H](C)C[C@H](OC)[C@H]2O[C@@](O)(C(=O)C(=O)N3CCCC[C@H]3C(=O)O[C@H](/C(C)=C/[C@@H]3CC[C@@H](O)[C@H](OC)C3)[C@H](C)[C@@H](O)CC1=O)[C@H](C)C[C@@H]2OC [TACROLIMUS ANHYDROUS]
fold change (FC) (Cytochrome P450 2D6 [43]): 2.2 | fold change (FC) (Cytochrome P450 3A4 [44]): 1.6 | fold change (FC) (Cytochrome P450 2C9 [45]): 1.3
